Each structure is given as a SMILES string. Bounds are passed on as bounds.

For data set [1], the system named is human panelists (sweet taste). The data set is described as follows: Sweetness threshold: paired comparison taste test, LSB + compound vs. 1% sucrose. The data set is classed as in vivo. How it is done: (§1) Experiment 1: Sweet Flavor and Sweet Flavor Enhancement Measurement Using Human Panelists Conducting a Paired Comparison Test
(§2) Test samples containing experimental compounds were presented in pairs to the panelist and they were asked to determine which of the sample is sweeter. […] A group of 10-16 or more panelists participated in each test. Subjects refrained from eating or drinking (except water) for at least 1 hour prior to the test. Subjects rinsed with water several times to clean the mouth.
(§3) Taste tests were performed with sucrose or HFCS as the sweetener in the presence or absence of compound. A 0.2% stock solution of compound in water with sodium bicarbonate was prepared and then this stock solution was diluted in the final sample to achieve the targeted final concentration of compound. For the sample evaluated at pH 2.8 the pH of the solution is decreased to about pH 2.8 using citric acid. Taste samples were also prepared in a low sodium phosphate buffer (pH 7.1; “LSB”) lacking sucrose or HFCS to evaluate the taste of the compound alone. Low sodium phosphate buffer consists of 0.3 mM KCl, 0.5 mM Na2HPO4, and 0.175 mM KH2PO4. Sample volumes are usually 20 ml.
(§4) In one paired comparison test, the panelist was presented with two different samples and asked to identify the sample which is sweeter. The samples within a paired comparison test were presented in a randomized, counterbalanced order. Panelists had up to a 1 minute delay between taste tests to clear the mouth of any tastes.
(§5) Binomial probability tables were used to determine the probability of the correct number of responses occurring for each test at alpha=0.05

Data set [2] relates to human panelists (sweet taste). The data set is described as follows: Paired comparison taste test: enhancement of sucrose at pH 2.8 (6% sucrose + compound vs. 10%, 11% or 12% sucrose). The data set is classed as in vivo. On the procedure: as §1, §2, §3, §4, §5
In data set [3] the test system is human panelists (sweet taste). Kind of data set: Paired comparison taste test: enhancement of sucrose at pH 7.1 (6% sucrose + compound vs. 10%, 11% or 12% sucrose). The data set is classed as in vivo. How it is done: as §1, §2, §3, §4, §5
For data set [4], the system named is human panelists (sweet taste). Kind of data set: Paired comparison taste test: enhancement of HFCS at pH 2.8 (6% HFCS + compound vs. 8% or 9% HFCS). The data set is classed as in vivo. On the procedure: as §1, §2, §3
In one paired comparison test, the panelist was presented with two different samples and asked to identify the sample which is sweeter. […]

[5] abbreviates: 1% Sucrose vs LSB + 25 ppm Compound A1, n = 26 (13 panelists × 2 reps).
Setting [6] is: 11% Sucrose vs 6% Sucrose + 5 ppm Compound A1, n = 33.
Where [7] appears, read: 10% Sucrose vs 6% Sucrose + 10 ppm Compound A1, n = 32 (16 panelists × 2 reps).

The molecule `CC(C)(COc1cccc2c1C(N)=NS(=O)(=O)N2)NC(=O)c1ccnc(-n2cnc(C(=O)O)c2)c1` [Example 37, 1-(4-((1-((4-amino-2,2-dioxido-1H-benzo[c][1,2,6]thiadiazin-5-yl)oxy)-2-methylpropan-2-yl)carbamoyl)pyridine-2yl)1H-imidazole-4-carboxylic acid] showed a melting point of more than 200 °C.
The same measure, in the same setting: the figure for `CC(C)(COc1cccc2c1C(N)=NS(=O)(=O)N2)NC(=O)c1ccnc(-n2ccnc2N)c1.Cl` is 235 to 237 °C (dec.).
Consider `OC[C@H]1O[C@@](CO)(O[C@H]2O[C@H](CO)[C@@H](O)[C@H](O)[C@H]2O)[C@@H](O)[C@@H]1O` [Sucrose, sucrose, reference compound], for which the “Sample selected as sweeter by panelists (Total)” value in data set [1] (1% Sucrose vs LSB + 10 ppm Compound A6, n = 30 (10 panelists × 3 reps)) turned out to be 18; in data set [1] (setting [5]) it was 14; in data set [2] (setting [6]) it was 21; in data set [2] (12% Sucrose vs 6% Sucrose + 5 ppm Compound A6, n = 48 (16 panelists × 3 reps)), 22; in data set [3] (setting [7]), 14; in data set [3] (11% Sucrose vs 6% Sucrose + 5 ppm Compound A6, n = 48 (16 panelists × 3 reps)), 24.
For `CC(C)(COc1cccc2c1C(N)=NS(=O)(=O)N2)NC(=O)c1ccnc(-n2cnc(CO)c2)c1` [Example 36, N-(1-((4-amino-2,2-dioxido-1H-benzo[c][1,2,6]thiadiazin-5-yl)oxy)-2-methylpropan-2-yl)-2-(4-(hydroxymethyl)-1H-imidazol-1-yl)isonicotinamide], the melting point was more than 200 °C.
For `CC(C)(COc1cccc2c1C(N)=NS(=O)(=O)N2)NC(=O)c1ccncc1` [Compound A1, N-(1-(4-amino-2,2-dioxido-1H-benzo[c][1,2,6]thiadiazin-5-yloxy)-2-methylpropan-2-yl)isonicotinamide], the “Sample selected as sweeter by panelists (Total)” value is 12 in data set [1] (setting [5]); 12 in data set [2] (setting [6]); 12 in data set [4] (9% High Fructose Corn Syrup vs 6% High Fructose Corn Syrup + 20 ppm Compound A1, n = 32 (16 panelists × 2 reps)); 18 in data set [3] (setting [7]). The “Sucrose solution of equivalent sweetness (% sucrose)” value in data set [2] (5 ppm compound in 6% sucrose) was approximately 11%; in data set [3] (10 ppm compound in 6% sucrose), approximately 10%. Further, the “HFCS solution of equivalent sweetness (% High Fructose Corn Syrup)” value in data set [4] (5 ppm compound in 6% High Fructose Corn Syrup) was approximately 9%.

Source of the values: patent US9695162B2, “Sweet flavor modifier” (SENOMYX, INC., priority 2013, dated 2017).
